Non-standard residues stand in square brackets, D forms with d. Residues, ends and D or L forms follow the SMILES beside them. dPhe(4-Cl) = N[C@H](Cc1ccc(Cl)cc1)C(=O)O; d2Nal = N[C@H](Cc1ccc2ccccc2c1)C(=O)O; dCit = NC(=O)NCCC[C@@H](N)C(=O)O; d3Pal = N[C@H](Cc1cccnc1)C(=O)O
Experiments:
[1] = tested on: luteal regression / start of menses; conditions: 1 mg given in the luteal phase; previous use; cited from earlier work
[2] = tested on: women undergoing controlled ovarian stimulation; test: Controlled ovarian stimulation (COS) cycles programmed by oral contraceptives, with Gonal-F stimulation and Cetrotide 0.25 mg daily, in patients; assay type: in vivo
Protocol: A total of 30 patients, 15 from each German study center was enrolled for one treatment cycle. In the pre-treatment cycle, each patient received monophasic oral contraceptive(OC) pills containing 30 μg Estradiol in combination with levonogastrel. […] Cetrotide® 0.25 mg was given daily from the evening of stimulation day (s-day) 5/morning of s-day 6 until the day before hCG administration. On the basis of the ultrasound scans performed on s-day 9/10(s-day 9/10), and a calculation of follicular growth of 2 mm per day, hCG was administered to trigger ovulation (when >2 follicle's≧18 mm) were visualized.
Safety end-points were indicated and severity of adverse events.

[3] = last day of Cetrotide administration, 17 patients

SMILES: CC(=O)N[C@H](Cc1ccc2ccccc2c1)C(=O)N[C@H](Cc1ccc(Cl)cc1)C(=O)N[C@H](Cc1cccnc1)C(=O)N[C@@H](CO)C(=O)N[C@@H](Cc1ccc(O)cc1)C(=O)N[C@H](CCCNC(N)=O)C(=O)N[C@@H](CC(C)C)C(=O)N[C@@H](CCCNC(=N)N)C(=O)N1CCC[C@H]1C(=O)N[C@H](C)C(N)=O [Cetrotide, cetrorelix] (Ac-[d2Nal][dPhe(4-Cl)][d3Pal]SY[dCit]LRP[dA]-NH2)
- start of menses after administration (luteal regression obtained) [1]: 2 to 4 days
- adverse events ([2]; 17 patients): no cases of OHSS nor adverse events
- cases of OHSS ([2]; 17 patients): no cases
- difference between predicted and actual day of OPU, average ([2]; 17 patients): 2 days
- mean number of embryos transferred ([2]; 17 patients): 2
- mean number of oocytes retrieved ([2]; 17 patients): 8.8
- patients receiving hCG who had ovum pick up and embryo transfer ([2]; 17 patients): All 17 women who received hCG had ovum pick up and embryo transfer
- pregnancy rate per attempt/cycle ([2]; 17 patients): 41%
- efficacy in OC programmed cycles ([2]; conclusion): appears to be effective
- tolerability in OC programmed cycles ([2]; conclusion): well tolerated
- mean number of follicles with diameter 15-17 mm [2, 3]: 4.9
- mean number of follicles with diameter ≦14 mm [2, 3]: 2.7
- mean number of follicles with diameter ≧18 mm [2, 3]: 2.7
- mean number of follicles ≧18 mm on s-day 9/10 ([2]; preliminary results from 17 patients, stimulation day 9/10, Cetrotide 0.25 mg daily): 2.2

— patent publication US8173592B1, “Method for a programmed controlled ovarian stimulation protocol” (Zentaris IVF GmbH, priority 1999, dated 2012)
